Where only a bound is given, the exact number is not on record here.

In the assay the target is Bcl-2 (Homo sapiens, UniProt P10415). Kind of assay: Bcl-2 binding affinity analysis (fluorescence polarization binding assay). An excerpt: Bcl-2 and Bcl-xL binding can be determined using a variety of known methods. One such assay is a sensitive and quantitative in vitro binding assay using fluorescence polarization (FP) described by Wang, J.-L.; Zhang, Z-J.; Choksi, S.; Sjam. S.; Lu, Z.; Croce, C. M.; Alnemri, E. S.; Komgold, R.; Huang, Z. Cell permeable Bcl-2 binding peptides: a chemical approach to apoptosis induction in tumor cells. Cancer Res. 2000, 60, 1498-1502).
Sequence of Bcl-2 (P10415 whole entry): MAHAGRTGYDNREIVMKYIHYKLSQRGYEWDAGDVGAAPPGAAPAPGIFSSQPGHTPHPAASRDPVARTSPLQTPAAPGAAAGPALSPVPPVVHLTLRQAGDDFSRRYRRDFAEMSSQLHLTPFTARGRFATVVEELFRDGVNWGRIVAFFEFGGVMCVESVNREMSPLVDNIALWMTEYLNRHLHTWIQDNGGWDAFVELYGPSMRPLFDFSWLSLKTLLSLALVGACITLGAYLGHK
Bcl-2 binding affinity analysis data is presented below for various compounds of the invention.
As usually defined, the Ki is the dissociation constant of the complex between target and ligand, obtained from inhibition or displacement. Higher therefore signals weaker binding. In the case of `COc1c(CN2C[C@H](O)[C@@H]([C@H](C)O)[C@H]2C(=O)NC2C[C@H]3C[C@@H]([C@@H]2C)C3(C)C)cccc1-c1cc(C(=O)NCCc2ccccc2)cc(N(C)C)c1` (stereo partly drawn) [Compound 1], the Ki was under 100 nM. `COc1c(CN2CCC[C@H]2C(=O)N[C@H]2C[C@H]3C[C@@H]([C@@H]2C)C3(C)C)cccc1-c1cc(C(=O)N[C@@H](Cc2ccccc2)CN(C)C)cc([N+](=O)[O-])c1` [Compound 13] displayed an inhibition constant (Ki) of over 50000 nM. Molecule `COc1c(CN2CCC[C@@H]2C(=O)N[C@H]2C[C@H]3C[C@@H]([C@@H]2C)C3(C)C)cccc1-c1cc(C(=O)N[C@@H](Cc2ccccc2)CN(C)C)cc([N+](=O)[O-])c1` [Compound 18] gave a Ki of 300 to 50000 nM. `CCN1CCC[C@@H]1CNC(=O)c1cc(-c2cccc(CN3C[C@H](O)[C@@H]([C@H](C)O)[C@H]3C(=O)NC3C[C@H]4C[C@@H]([C@@H]3C)C4(C)C)c2OC)cc(N(C)C)c1` (stereo partly drawn) [Compound 23] had a Ki of under 100 nM. Turning to `C[C@H](O)[C@H]1[C@@H](C(=O)NC2C[C@H]3C[C@@H]([C@@H]2C)C3(C)C)N(Cc2cccc(-c3ccc(C(=O)N(C)C)cc3)c2)C[C@@H]1O` (stereo partly drawn) [Compound 24], the inhibition constant (Ki) was over 50000 nM. In turn, `COc1c(CN2CC[C@H](O)[C@H]2C(=O)N[C@H]2C[C@H]3C[C@@H]([C@@H]2C)C3(C)C)cccc1-c1cc(C(=O)N[C@@H](Cc2ccccc2)CN(C)C)cc(N(C)C)c1` [Compound 26] displayed a Ki of under 100 nM. `COc1c(CN2CSC[C@H]2C(=O)N[C@H]2C[C@H]3C[C@@H]([C@@H]2C)C3(C)C)cccc1-c1cc(C(=O)N[C@@H](Cc2ccccc2)CN(C)C)cc(N(C)C)c1` [Compound 33]: the Ki is under 100 nM. `COc1c(CN2CSC(C)(C)[C@H]2C(=O)N[C@H]2C[C@H]3C[C@@H]([C@@H]2C)C3(C)C)cccc1-c1cc(C(=O)N[C@@H](Cc2ccccc2)CN(C)C)cc(N(C)C)c1` [Compound 34] had a Ki of under 100 nM. As for `COc1c(CN2C[C@H](N)C[C@H]2C(=O)N[C@H]2C[C@H]3C[C@@H]([C@@H]2C)C3(C)C)cccc1-c1cc(C(=O)N[C@@H](Cc2ccccc2)CN(C)C)cc(N(C)C)c1` [Compound 35], the inhibitory constant (Ki) was under 100 nM. Molecule `COc1c(CN2C[C@@H](N)C[C@H]2C(=O)N[C@H]2C[C@H]3C[C@@H]([C@@H]2C)C3(C)C)cccc1-c1cc(C(=O)N[C@@H](Cc2ccccc2)CN(C)C)cc(N(C)C)c1` [Compound 36] displayed a Ki of under 100 nM. As for `COc1c(CN2CCCC[C@H]2C(=O)N[C@H]2C[C@H]3C[C@@H]([C@@H]2C)C3(C)C)cccc1-c1cc(C(=O)N[C@@H](Cc2ccccc2)CN(C)C)cc(N(C)C)c1` [Compound 37], the figure is over 50000 nM; as for `COc1c(CN2CCOC[C@H]2C(=O)N[C@H]2C[C@H]3C[C@@H]([C@@H]2C)C3(C)C)cccc1-c1cc(C(=O)N[C@@H](Cc2ccccc2)CN(C)C)cc(N(C)C)c1` [Compound 38], 300 to 50000 nM.
